Some results are limits rather than exact numbers.

In general, IC50 refers to the midpoint of a concentration-inhibition curve. The low end stands for greater potency, the high end for weaker potency.

The subject of series [1] is A549 (human nonsmall cell lung cancer) cells. Description: MTT assay, antiproliferative activity in A549 cells. It is filed as cell-based. Particulars: exposure time 96 h, means ± SD. An excerpt: (§1) CH1 cells (human ovarian carcinoma) were a generous gift from Lloyd R. Kelland, CRC Centre for Cancer Therapeutics, Institute of Cancer Research, Sutton, UK. SW480 (human adenocarcinoma of the colon) and A549 (human nonsmall cell lung cancer) cells were kindly provided by Brigitte Marian (Institute of Cancer Research, Department of Medicine I, Medical University of Vienna, Austria). All cell culture media and reagents were purchased from Sigma-Aldrich Austria and plastic ware from Starlab Germany. Cells were grown in 75 cm^2 culture flasks as adherent monolayer cultures in minimum essential medium (MEM) supplemented with 10% heat-inactivated fetal calf serum, 1 mM sodium pyruvate, 4 mM L-glutamine, and 1% nonessential amino acids (from 100× ready-to-use stock). Cultures were maintained at 310 K in humidified atmosphere containing 95% air and 5% CO2.
(§2) Cytotoxic effects of the test compounds were determined by means of a colorimetric microculture assay [MTT assay; MTT = 3-(4,5-dimethyl-2-thiazolyl)-2,5-diphenyl-2H-tetrazolium bromide] as described previously.[13] Cells were harvested from culture flasks by trypsinization and seeded by using a pipetting system (Biotek Precision XS Microplate Sample Processor) in densities of 1 × 10^3 (CH1), 2 × 10^3 (SW480), and 3 × 10^3 (A549) in 100 μL/well aliquots in 96-well microculture plates. For 24 h, cells were allowed to settle and resume proliferation. […] After 96 h of drug exposure, the medium was replaced with 100 μL/well of a 1:7 MTT/RPMI 1640 mixture (MTT solution, 5 mg/mL of MTT reagent in phosphate-buffered saline; RPMI 1640 medium, supplemented with 10% heat-inactivated fetal bovine serum and 4 mM L-glutamine), and plates were incubated for further 4 h at 310 K. Subsequently, the solution was removed from all wells, and the formazan crystals formed by viable cells were dissolved in 150 μL of DMSO per well. Optical densities at 550 nm were measured with a microplate reader (Biotek ELx808) by using a reference wavelength of 690 nm to correct for unspecific absorption. The quantity of viable cells was expressed relative to untreated controls, and 50% inhibitory concentrations (IC50) were calculated from concentration-effect curves by interpolation. Evaluation is based on means from three independent experiments.
(In general: Formazan colour is commonly taken as a measure of viable cells.)

Series [2] concerns CH1 cells (human ovarian carcinoma). Description: MTT assay, antiproliferative activity in CH1 cells. The format is cell-based. As to conditions: for IC50: MTT assay, exposure time 96 h, means ± SD; for more active than the respective osmium analogue: CH1 cells.
Description: as §1, §2

Series [3] has as its system SW480 (human adenocarcinoma of the colon) cells. Description: MTT assay, antiproliferative activity in SW480 cells. It is filed as cell-based. Particulars: for IC50: MTT assay, exposure time 96 h, means ± SD; for more active than the respective osmium analogue: SW480 cells.
Description: as §1, §2

The nature of series [4]: log D7.4 by shake-flask method, n-octanol/buffered aqueous solution. It is filed as physicochemical. As to conditions: for log D7.4 in the presence of 0.1 M KCl: n-octanol/0.02 M HEPES pH 7.4, 0.1 M KCl, T = 298.0 K; for log D7.4: n-octanol/0.02 M HEPES pH 7.4, T = 298.0 K. The method, then:
^1H NMR spectra were recorded on a Bruker Avance III instrument (Ultrashiled Magnet) at 500.13 MHz at room temperature. DMSO-d6 was used as a solvent. Standard pulse programs were applied. ^1H chemical shifts were measured relative to the residual solvent peaks. […] Complex concentration was 1.0 mM. Watergate water suppression program and 4,4-dimethyl-4-silapentane-1-sulfonic acid (DSS) internal standard were used. ATR-IR spectra were measured on a Bruker Vertex spectrometer. D7.4 values were determined by the traditional shake-flask method in n-octanol/buffered aqueous solution at pH 7.4 (N-(2-hydroxyethyl)piperazine-N′-ethanesulfonic acid (HEPES) buffer) and 298.0 ± 0.2 K, as described previously.[25] In the case of the complexes of L-Ala (2) and L-Val (3) the D7.4 values were determined in the presence of 0.1 M KCl as well. Two parallel experiments were performed for each sample. The complexes were dissolved at 0.3 mM in the n-octanol presaturated aqueous solution of the buffer (0.02 M). The aqueous solutions and n-octanol with 1:1 phase ratio were gently mixed with 360° vertical rotation for 3 h to avoid emulsion formation, and the mixtures were centrifuged at 5000 rpm for 3 min by a temperature-controlled centrifuge at 298 K. After separation, UV spectra of the complexes in the aqueous phase were compared to those of the original aqueous solutions, and D7.4 values were calculated as the mean of [absorbance (original solution)/absorbance (aqueous phase after separation) – 1] obtained in the region of λ ≈ (250–290 nm). Circular dichroism (CD) and UV–vis spectra under physiological conditions (0.02 M phosphate buffer, pH 7.40 with 0.1 M KCl) were recorded on a Jasco J-815 spectrometer in an optical cell of 2 cm path length (l) in the wavelength range from 220 to 600 nm. The analytical concentration for the CD measurement of the complexes was 400 μM in aqueous solution. CD data are given as the differences in molar absorptivities between left and right circularly polarized light, based on the concentration of the […] (Δε = ΔA/l/ccomplex). The concentrations for the UV–vis measurements amounted to 403 (1), 401 (4), 401 (5), 400 (8), 399 (3), 401 (2), 403 (7), and 401 (6) μM.
The log D7.4 values of the complexes were determined by the traditional shake-flask method in n-octanol/buffered aqueous solution at pH 7.4 by analysis of the UV–vis spectra of the aqueous phases before and after separation (Supporting Information, Figure S10 and Table 5).

A short description of series [5]: Hydrolytic stability by 1H NMR spectroscopy. The format is physicochemical. Particulars: 10% D2O/H2O, pH = 5.86, compared with pH 7.4 buffer. The method, then: ^1H NMR spectra were recorded on a Bruker Avance III instrument (Ultrashiled Magnet) at 500.13 MHz at room temperature. DMSO-d6 was used as a solvent. Standard pulse programs were applied. ^1H chemical shifts were measured relative to the residual solvent peaks. […] Complex concentration was 1.0 mM. Watergate water suppression program and 4,4-dimethyl-4-silapentane-1-sulfonic acid (DSS) internal standard were used. ATR-IR spectra were measured on a Bruker Vertex spectrometer. D7.4 values were determined by the traditional shake-flask method in n-octanol/buffered aqueous solution at pH 7.4 (N-(2-hydroxyethyl)piperazine-N′-ethanesulfonic acid (HEPES) buffer) and 298.0 ± 0.2 K, as described previously.[25] In the case of the complexes of L-Ala (2) and L-Val (3) the D7.4 values were determined in the presence of 0.1 M KCl as well. […] The aqueous solutions and n-octanol with 1:1 phase ratio were gently mixed with 360° vertical rotation for 3 h to avoid emulsion formation, and the mixtures were centrifuged at 5000 rpm for 3 min by a temperature-controlled centrifuge at 298 K. After separation, UV spectra of the complexes in the aqueous phase were compared to those of the original aqueous solutions, and D7.4 values were calculated as the mean of [absorbance (original solution)/absorbance (aqueous phase after separation) – 1] obtained in the region of λ ≈ (250–290 nm). […]

The nature of series [6]: Stability in aqueous solution by UV-vis spectroscopy. The format is physicochemical. Particulars: pH 7.40, 0.02 M HEPES, 0.25 mM, 298.0 K, in the presence of 0.1 M KCl or in its absence.
Series [7] in a line: Aqueous stability by ESI mass spectrometry. As to conditions: 50 μM in water, 310 K, over 24 h. It is filed as physicochemical. The method, then:
(§3) The stability of four compounds, namely 1, 4, 5, and 8, in aqueous solution and in the presence of 4 equiv of sodium ascorbate was investigated using an AmaZon SL ESI ion trap mass spectrometer (Bruker Daltonics GmbH, Bremen, Germany). For this purpose, the compounds were diluted from 400 μM stock solution (1% DMSO) to 50 μM in water and in the presence of 200 μM sodium ascorbate. The solutions were incubated at 310 K in the dark, and samples were measured after 0.5, 1, 2, 6, and 24 h after a second dilution step to 5 μM of the metal compound. The samples were introduced by direct infusion into the mass spectrometer at 280 μL/h, and mass spectra were recorded over 0.5 min and averaged. Typical experimental conditions were as follows: high voltage (HV) capillary ±4.5 kV, dry temp 180 °C, nebulizer 8 psi, dry gas 6 L/min, radio frequency (RF) level 77%, trap drive 57.6, average accumulation time 25 ms (negative ion mode) and 120 μs (positive ion mode). […]
(§4) The aqueous stability of compounds 1, 4, 5, and 8 was also confirmed by ESI mass spectrometry. […] Dissolution of 1 in D2O leads to the change of the labile −NH2 to −ND2, and the resulting compound [RuCl3(N,N-d2-Gly−H)(NO)] ^– (m/z 314.74 compared to m/z 312.72 of 1) was analyzed. […] Note that related ruthenium-nitrosyl complexes with azole heterocycles reacted quantitatively with sodium ascorbate within several hours.[15]

Series [8] is described as follows: Co-incubation with sodium ascorbate followed by ESI mass spectrometry. The format is physicochemical. As to conditions: 4 equiv sodium ascorbate (200 μM), 310 K, over 24 h. The method, then: as §3, §4

For the compound `CCCC[N+](CCCC)(CCCC)CCCC.C[C@@H]1[NH2+][Ru-2]([Cl])([Cl])([Cl])([N]=O)[O]C1=O` [complex 2, (nBu4N)[RuCl3(L-Ala–H)(NO)]], the IC50 in series [1] is above 320 µM; in series [2], 12 ± 2 µM; in series [3] it was 47 ± 3 µM. For the same compound, the “log D7.4 in the presence of 0.1 M KCl” value in series [4] is on record as “–1.47 ± 0.11”. Besides, the “log D7.4” value in series [4] was “–1.63 ± 0.08”.

On to `CCCC[N+](CCCC)(CCCC)CCCC.O=[N][Ru-2]1([Cl])([Cl])([Cl])[NH2+][C@@H](CO)C(=O)[O]1` [complex 6, (nBu4N)[RuCl3(L-Ser–H)(NO)]], for which the IC50 in series [1] was above 320 µM; in series [2], 13 ± 2 µM; in series [3] it was 63 ± 10 µM. Besides, in series [4], the “log D7.4” value is listed as “–1.77 ± 0.12”.

In the case of `CCCC[N+](CCCC)(CCCC)CCCC.C[C@@H](O)[C@@H]1[NH2+][Ru-2]([Cl])([Cl])([Cl])([N]=O)[O]C1=O` [complex 7, (nBu4N)[RuCl3(L-Thr–H)(NO)]], the results for the 50% inhibitory concentration (IC50) in series [1], in series [2] and in series [3] were above 320 µM, 23 ± 2 µM and 71 ± 15 µM, respectively. Besides, the “log D7.4” value in series [4] is recorded as “–1.75 ± 0.02”.

For `CCCC[N+](CCCC)(CCCC)CCCC.O=[N][Ru-2]1([Cl])([Cl])([Cl])[NH2+][C@@H](Cc2ccc(O)cc2)C(=O)[O]1` [complex 8, (nBu4N)[RuCl3(L-Tyr–H)(NO)]], the figures for the concentration for half-maximal inhibition (IC50) in series [1], in series [2] and in series [3] were above 320 µM, 17 ± 3 µM and 38 ± 12 µM, respectively. In series [5], the “hydrolytic stability: 1H NMR in nonbuffered medium” value is given as “showed the same NMR spectra”. Besides, in series [6], the “hydrolysis over 24 h (absorbance at 250 nm)” value was “negligible”. Moreover, in series [7], the “aqueous stability, species in negative ion mode ESI mass spectra” value was “[RuCl3(AA–H)NO]^− as the major species”. In series [8], the “ligand release on incubation with sodium ascorbate” value is on record as “did not induce ligand release”.

In the case of (nBu4N)[RuCl3(D-Pro–H)(NO)] [complex 5], the “more active than the respective osmium analogue” value in series [2] turned out to be 11 fold; in series [3] it was 14 fold.

As for (nBu4N)[RuCl3(L-Pro–H)(NO)] [complex 4], the “more active than the respective osmium analogue” value in series [2] was determined as 5.7 fold; in series [3] it was 4.4 fold.

As to (nBu4N)[RuCl3(L-Val–H)(NO)] [complex 3], the IC50 was above 320 µM in series [1], 27 ± 3 µM in series [2] and 53 ± 2 µM in series [3]. Besides, the “log D7.4 in the presence of 0.1 M KCl” value in series [4] is “–1.31 ± 0.07”. Moreover, the “log D7.4” value in series [4] is recorded as “–1.13 ± 0.02”.

The values above are taken from paper PMC3942006, “Ruthenium-Nitrosyl Complexes with Glycine, L-Alanine, L-Valine, L-Proline, D-Proline, L-Serine, L-Threonine, and L-Tyrosine: Synthesis, X-ray Diffraction Structures, Spectroscopic and Electrochemical Properties, and Antiproliferative Activity” (Inorganic Chemistry, 2014).
